# Experimental data: US20030118983A1, “Rapid screening procedure for inflammation mediators” (priority 2000, published 2003)
# Where “and” joins values, the source holds several entries; their conditions need not be identical. Identical values can stand only once.
# Legend:
# PMNs [1] = experiment: Intracellular oxidants (DCF) in PMNs activated with cytokine cocktail and hemoglobin; assay type: cell-based, human; conditions: for effect on oxidants in PMNs: cytokine and hemoglobin activated PMNs
# Description: (§1) PMNs and MNCs were harvested from blood via centrifugation with equal volumes of Polymorphprep, GIBCO (Grand Island, N.Y.) at 550×g for 35 minutes at 20° C. […] Replicate experiments were conducted with three to five donors from a pool of six consented male adults.
# (§2) PMNs (10,000,000/ml) and MNCs (20,000,000/ml) were loaded with 2,7-dichlorodihydrofluorescein-diacetate (DCFH-DA) (2 μM) (Molecular Probes; Eugene Oreg.) in HBSS for 30 minutes at 37° C. in a water bath. Non fluorescent DCFH is oxidized to fluorescent DCF by a variety of oxidants. The approach is sensitive, reproducible, and capable of measuring wide concentration range of intracellular oxidants. […] Treated PMNs or MNCs were incubated for 1 or 5 h in HBSS amended with physiological concentrations of Ca^2+ (1.5 mM), Mg^2+ (900 μM), glutamine (1.0 mM); GIBCO; Grand Island, N.Y.), arginine (100 μM), amino acids (1×MEM)(GIBCO; Grand Island, N.Y.), and tetrahydrobiopterin (1.0 μM). Flow cytometric analyses were performed with an argon laser (488 nm) and emission light measured behind a filter transmitting 530/30 nm light on a FACCalibur, Becton Dickinson (San Jose, Calif.) with CELLQuest data acquisition and analysis software. PMNs or MNCs were gated by forward- and side-scatter. For each sample, 10,000 PMNs or MNCs were collected.
# (§3) Statistical Analyses Intracellular oxidants in activated MNCs or PMNs treated with the three highest steroid concentrations or the L-NMMA treatment were compared to untreated activated MNCs or PMNs by Bonferroni corrected t-test.
# MNCs = experiment: Intracellular oxidants (DCF) in MNCs activated with cytokine cocktail and hemoglobin; assay type: cell-based, human; conditions: for dampening effect on oxidant production: cytokine and hemoglobin activation, 10 μM steroid
# Description: as §1, §2, §3
# [2] = Organochlorine insecticide levels in serum of burn patients; assay type: in vivo, human; conditions: for mean peak serum levels: nonsurviving burn patients; for mean peak serum levels / mean peak serum levels higher than in surviving patients: PBD5; for mean peak serum levels higher than in surviving patients: nonsurviving patients
# Description: Patients and Subjects. Analyses of xenoestrogens in archived serum were performed on samples from seven nonsurviving males and seven age- and burn-size matched surviving male burn patients admitted between 1991 and 1994 to the United States Army Institute of Surgical Research burn care facility. The criteria for selection of subjects were age (approximately 40-70 years), total burn surface area (≧25%), postburn survival (≧7 days) and lack of preburn disease. Inhalation injury was present in 6 of 7 surviving and 5 of 7 nonsurviving patients. In the non-surviving group, two patients died between postburn day (PBD) 7 and 11. Age-matched healthy males (n=12) were used as control subjects.
# Levels of insecticides in serum of burn patients on postburn day (PBD) 1, 3, 5, 7, and 11 were determined in accordance with a previously reported method25. This method used a Dynamic Thermal Stripper (Environchem, Kemblesville, Pa.) to sparge insecticides from 50 μl of serum. The insecticides were collected on Tenax solid sorbent and subsequently thermally desorbed with a Unacon 810 (Environchem, Kemblesville, Pa.) into a HP 5890 gas chromatograph (Hewlett Packard, Palo Alto, Calif.) equipped with a SPB-608 30 M, fused silica capillary column (J & W Scientific, Folsom, Calif.) and an electron capture detector. Levels of insecticides in serum stored at −75° C. were determined by comparing responses to standard curves constructed from certified standards (Ultra Scientific, Kingstown, R.I.) spiked into a composite sample consisting of serum from 3 subjects, previously determined to have low levels of each insecticide. For consistency, each patient's samples were analyzed during the same day by postburn day (PBD 1, 3, 7, and 11). The detection limit for HE and OC was 76 and 56 pg/mL, respectively. A reference serum sample pooled from 3 patients having medium levels of each insecticide was measured 1-2 times during each day of analyses. […] Serum cholesterol and triglyceride concentrations were determined using Instrumentation Laboratory reagents and analyzed on a Monarch Clinical Chemistry System (Instrumentation Laboratories, Inc., Lexington, Mass.).
# PMNs [3] = experiment: HE-induced DNA strand breaks in PMNs (dUTP nick end labeling); assay type: cell-based, human; conditions: for effect on HE-induced DNA strand breaks: at HE-induced peak values (3-6 nM)
# Description: HE-induced DNA strand breaks in PMNs were measured by flow cytometry using the tdt-mediated dUTP nick end labeling assay, In Situ Cell Death Detection Kit (Boehringer Mannheim, Indianapolis, Ind.) according to manufacturer's instructions. PMNs were incubated with L-NMMA, 17β-E2 receptor antagonists, TNFα, and varying concentrations of HE as described in the above HE-induced DCFH oxidation experiments with the exception that HE incubation time was 2 h instead of 40 min.
# In Vitro measurements of oxidant production and cellular damage.
# lymphocytes = experiment: HE effect on lymphocyte membrane integrity in mixed PMN/lymphocyte preparation (propidium iodide)
# Description: HE effects on surrounding lymphocyte membrane integrity mediated by PMN-derived NO were determined by cytofluorometric measurements of intracellular propidium iodide levels in a mixed PMN/lymphocyte preparation using 100,000 lymphocytes and PMN/lymphocyte ratios of 0/1, 2/1, 4/1, 10/1). For comparison some aliquots of PMNs were loaded with L-NMMA (5 mM) or 2-(4-carboxyphenyl)-4,4,5,5-tetramethyl imidazoline-1-oxyl-3-oxide (carboxy-PTIO) (5 mM) (Calbiochem, La Jolla, Calif.), a NO scavenger, prior to incubating leukocytes with HE (1 nM) for 40 min.
# (§4) The purity of PMNs and lymphocytes was greater than 88% and 95%, respectively, and their viability, as determined by trypan blue-exclusion, was greater than 90%.
# PMNs [4] = experiment: HE and 17β-E2 effects on intracellular oxidants (NO) in PMNs, DCFH oxidation; assay type: cell-based, human; conditions: for effect on HE-induced intracellular oxidants (NO): ICI 182,780 0.1 nM
# Description: HE effects on intracellular levels of oxidants in PMNs were measured using a previously reported cytofluorometric procedure.
# as §4
# PMNs [5] = conditions: for decrease in DCFH oxidation: 10^−4 M oxidant; for increase in DCFH oxidation over control levels: 10^−5 M oxidant, 30 min
# PMNs [6] = experiment: Propidium iodide staining of oxidant-treated PMNs (cell membrane integrity); conditions: oxidant levels ≧10^−7 M
# PMNs [7] = experiment: Heme protein effect on DCFH oxidation in unstimulated, LPS and TNFα-, and PMA-stimulated PMNs, with or without NOS inhibitors, SOD or antioxidants; assay type: cell-based, human; conditions: PMA-stimulated PMNs; L-NMMA 5 mM, L-NIO 5 mM, glutathione 25 μM and ascorbate 25 μM, human SOD 300 U/mL
# PMNs [8] = experiment: as above; assay type: cell-based, human; conditions: PMA-stimulated PMNs with arginine
# Description: DCFH-loaded PMNs were incubated with and without N-methyl-L-arginine (L-NMMA; 5 mM; Calbiochem, San Diego, Calif.) and heme proteins (0.3-1000 μg/mL) at 37 ° C. for 10 minutes. […] In unstimulated and LPS and TNFα -stimulated PMNs, the treatments were oxyMb, or oxyMb+L-NMMA (5 mM). […] RBC cell membranes were ruptured using a micro-ultrasonic cell disrupter, Kontes, Janke and Kukel Gmbh and CO. (Stauten, Germany). […] OxyMb was prepared by mixing excess sodium dithionite with Mb for 1 h and inorganic sulfur compounds were removed by dialyzing in HBSS buffer for 3 h. Percent iron in the ferric state in non-dithionite treated oxyMb or oxyHb was not assessed. […] […] cross-linked Hb was a gift from Walter Reed Army Institute of Research. […] Also, various concentrations of bovine liver Cu, Zn SOD (30-10,000 U/mL; 8-2640 μg/mL) and 30 μg/mL oxyMb were incubated with PMA-stimulated PMNs pretreated with and without L-NMMA. Flow cytometric measurements of oxidant-induced DCF fluorescence were performed as described above.
# [9] = TNFα 10 ng/mL added to HE-treated PMNs
compound,measurement,setting,value
hemoglobin: human hemoglobin (100 μg/mL),increase of mean oxidized DCF over unstimulated background,"PMNs [1]; PMNs, after 1 h, data not shown",172%
same,increase of mean intracellular oxidized DCF over unstimulated background,"PMNs [1]; PMNs, after 5 h",197%
same,increase of mean oxidized DCF over unstimulated background,"MNCs; MNCs, after 1 h, data not shown",41%
same,increase of mean intracellular oxidized DCF over unstimulated background,"MNCs; MNCs, after 5 h",259%
C[C@]12CCC(=O)C=C1CC[C@@H]1[C@@H]2[C@@H](O)C[C@@]2(C)[C@H]1CC[C@]2(O)C(=O)CO [cortisol],effect on oxidants in PMNs,PMNs [1],modest trend for reducing oxidant levels after 5 h
same,time dependence of oxidant reduction in MNCs,MNCs; 5 h versus 1 h of stimulation,reduced oxidant levels in MNCs to a greater extent after 5 h as compared to 1 h of stimulation
same,dampening effect on oxidant production,"MNCs; MNCs, after 1 h",20%
"CC(=O)[C@H]1CC[C@H]2[C@@H]3CCC4=CC(=O)CC[C@]4(C)[C@H]3CC[C@]12C [P4, progesterone]",effect on oxidants in PMNs,PMNs [1],no effect on oxidants
same,dampening effect on oxidant production,"MNCs; MNCs, after 1 h",0%
ClC1=C(Cl)C2(Cl)C3C4OC4C(Cl)C3C1(Cl)C2(Cl)Cl (stereo not drawn) [HE],mean peak serum levels,[2],215 pg/ml and 0.55 nM
same,mean peak serum levels higher than in surviving patients,[2],approximately 90%
same,"HE concentration of peak response of DNA strand breaks, Gaussian curve",PMNs [3]; 2 h incubation,approximately 5 nM
same,"HE concentration of peak response of DNA strand breaks, with TNFα",PMNs [3]; co-incubation with TNFα,approximately 0.3 nM
same,effect on cell membrane damage in lymphocytes,"lymphocytes; HE 1 nM, PMN/lymphocyte ratios above 2",increased cell membrane damage in the lymphocytes
same,"HE concentration of peak response of intracellular oxidants, with TNFα",PMNs [4]; co-incubation with TNFα 10 ng/mL,approximately 0.1 nM
"CC(=N)NCCCC[C@H](N)C(=O)O [L-NIL, L-N^6-(-1-Iminoethyl)lysine]",effect on oxidants in activated PMNs,PMNs [1]; L-NIL 10 μM,negligible effects on activated MNCs and PMNs
same,effect on oxidants in activated MNCs,MNCs; L-NIL 10 μM,negligible effects on activated MNCs and PMNs
ClC(Cl)=C(c1ccc(Cl)cc1)c1ccc(Cl)cc1 [DDE],increase of mean serum level,"[2]; nonsurvivors, by PBD 11",2.5 times
same,mean serum level,"[2]; nonsurvivors, by PBD 11",3667 pg/mL and 183 nM
"OO [H2O2, hydrogen peroxide]",decrease in DCFH oxidation,PMNs [5],approximately 25%
same,increase in DCFH oxidation over control levels,PMNs [5],25 fold
same,PMNs staining positive for propidium iodide,PMNs [6],87%
"human erythrocyte Cu, Zn SOD: superoxide scavenger, superoxide dismutase from human erythrocytes",effect on oxyMb-induced DCFH oxidation,PMNs [7],increased oxyMb induced-DCFH oxidation
ClC1=C(Cl)[C@]2(Cl)[C@H]3[C@H]([C@H](Cl)[C@]4(Cl)O[C@H]34)[C@@]1(Cl)C2(Cl)Cl [OC],mean peak serum levels,[2],677 pg/ml and 1.59 nM
same,mean peak serum levels higher than in surviving patients,[2],approximately 90%
"C[C@]12CC[C@@H]3c4ccc(O)cc4CC[C@H]3[C@@H]1CC[C@@H]2O [17β-E2, 17β-estradiol]",effect on oxidants in PMNs,PMNs [1],no effect on oxidants
same,dampening effect on oxidant production,"MNCs; MNCs, after 1 h",65%
oxyhemoglobin [oxyHb],less efficient than oxyMb in inducing DCFH oxidation,PMNs [8],20-40%
"O.O.O.O.[Cl][Fe][Cl] [FeCl2.4H2O, reference compound]",effect on DCFH oxidation,PMNs [8],produced a decrease in DCFH oxidation above 30 μg/mL
"C[C@]12CC[C@@H]3c4ccc(O)cc4C[C@@H](CCCCCCCCC[S+]([O-])CCCC(F)(F)C(F)(F)F)[C@H]3[C@@H]1CC[C@@H]2O (stereo partly drawn) [ICI 182,780, reference compound]",effect on HE-induced DNA strand breaks,PMNs [3],nonsignificant trend for attenuating HE-induced DNA strand breaks
same,effect on HE-induced intracellular oxidants (NO),"PMNs [4]; L-NMMA 5 mM, tamoxifen 200 nM",completely eliminated the HE-induced increase in NO
"CC1(C)N([O])C(c2ccc(C(=O)O)cc2)=[N+]([O-])C1(C)C [PTIO, 2-(4-carboxyphenyl)-4,4,5,5-tetramethyl imidazoline-1-oxyl-3-oxide, reference compound]",effect on HE-induced cell membrane damage in lymphocytes,lymphocytes; co-incubation with HE 1 nM,attenuated the HE-induced cell membrane damage in the lymphocytes
"CCN(CC)/[N+]([O-])=N/O.CCNCC [DEANO, diethylamine nitric oxide]",decrease in DCFH oxidation,PMNs [5],approximately 25%
same,increase in DCFH oxidation over control levels,PMNs [5],25 fold
same,PMNs staining positive for propidium iodide,PMNs [6],87%
TNFα,increase in amplitude of HE DNA strand break Gaussian curve,PMNs [3]; TNFα added to HE,445%
same,left shift of HE DNA strand break Gaussian curve,PMNs [3]; TNFα added to HE,10 fold
same,increase in amplitude of HE intracellular oxidant Gaussian curve,PMNs [4]; [9],60%
same,left shift of HE intracellular oxidant Gaussian curve,PMNs [4]; [9],10 fold
"CC/C(=C(\c1ccccc1)c1ccc(OCCN(C)C)cc1)c1ccccc1 [tamoxifen, reference compound]",effect on HE-induced DNA strand breaks,PMNs [3],nonsignificant trend for attenuating HE-induced DNA strand breaks
same,effect on 17β-E2-induced intracellular oxidants (NO),"PMNs [4]; L-NMMA 5 mM, tamoxifen 200 nM",completely inhibited the 17β-E2-induced NO levels
same,effect on HE-induced intracellular oxidants (NO),"PMNs [4]; L-NMMA 5 mM, tamoxifen 200 nM",completely eliminated the HE-induced increase in NO
